Values quoted from earlier work, collected in patent US5028692A, “Gastrin releasing peptide antagonist” (Merck & Co., Inc., priority 1989, dated 1991).
Peptide text beside a SMILES is read from it.

Assays:
[1] = tested on: SCLC cell lines
[2] = tested on: bombesin-stimulated growth

Row | Compound | inhibition of clonal and mass culture growth [1] | inhibition of bombesin-stimulated growth [2]
1 | CSCC[C@H](NC(=O)[C@H](CC(C)C)NC(=O)CNC(=O)[C@H](Cc1ccc(O)cc1)NC(=O)[C@H](Cc1ccccc1)NC(=O)[C@H](CCCCN)NC(=O)[C@H](CC(N)=O)NC(=O)[C@@H]1CCCN1C(=O)[C@H](CC(=O)O)NC(=O)[C@H](C)NC(=O)[C@@H]1CCC(=O)N1)C(N)=O [physalaemin] (HELM PEPTIDE1{[Glp].A.D.P.N.K.F.Y.G.L.M.[am]}$$$$V2.0) | inhibits the clonal and mass culture growth of SCLC cell lines at picomolar concentrations | –
2 | [Leu^14 -.PSI.-CH2 NH-Leu^13 ] bombesin | – | potent inhibitor
